For this experiment, the system named is monocytic THP1 cells infected with HIV VSV-G pseudotyped GFP-NEF reporter virus. As to the kind of experiment: cells. The following applies: Human immunodeficiency virus 1, THP-1, 24 h. The class given is cell-based.

`Cc1cc(/C=C/C#N)cc(C)c1Oc1nc(NC23CC(C#N)(C2)C3)nc2nn(CC#N)cc12` [Compound 304, (E)-3-((2-(cyanomethyl)-4-(4-(2-cyanovinyl)-2,6-dimethylphenoxy)-2H-pyrazolo[3,4-d]pyrimidin-6-yl)amino)bicyclo[1.1.1]pentane-1-carbonitrile] had an EC50 of 107 nM.

`Cc1cc(/C=C/C#N)cc(C)c1Oc1nc(NC23CC(C#N)(C2)C3)nc2nn(CCO)cc12` [Compound 305, (E)-3-((4-(4-(2-cyanovinyl)-2,6-dimethylphenoxy)-2-(2-hydroxyethyl)-2H-pyrazolo[3,4-d]pyrimidin-6-yl)amino)bicyclo[1.1.1]pentane-1-carbonitrile] had an EC50 of 45 nM.

The compound `Cc1cc(/C=C/C#N)cc(C)c1Oc1nc(NC23CC(C#N)(C2)C3)nc2c1C1(C)O[C@H](C)CN1C2=O` (stereo partly drawn) [Compound 308, 3-(((6R)-4-(4-((E)-2-cyanovinyl)-2,6-dimethylphenoxy)-4b,6-dimethyl-9-oxo-4b,6,7,9-tetrahydrooxazolo[3′,2′:1,5]pyrrolo[3,4-d]pyrimidin-2-yl)amino)bicyclo[1.1.1]pentane-1-carbonitrile] displayed an EC50 of 60.1 nM. The EC50 values of the last two compounds are within 1.5-fold of each other.

On to `Cc1cc(/C=C/C#N)cc(C)c1Oc1nc(NC23CC(C#N)(C2)C3)nc2c1[C@H](C)N(c1cnn(C)c1)C2=O` [Compound 312, (S,E)-3-((4-(4-(2-cyanovinyl)-2,6-dimethylphenoxy)-5-methyl-6-(1-methyl-1H-pyrazol-4-yl)-7-oxo-6,7-dihydro-5H-pyrrolo[3,4-d]pyrimidin-2-yl)amino)bicyclo[1.1.1]pentane-1-carbonitrile], for which the EC50 is 15.1 nM.

`Cc1cc(/C=C/C#N)cc(C)c1Oc1nc(NC23CC(C#N)(C2)C3)nc2c1[C@@H](C)N(c1cnn(C)c1)C2=O` [Compound 313, (R,E)-3-((4-(4-(2-cyanovinyl)-2,6-dimethylphenoxy)-5-methyl-6-(1-methyl-1H-pyrazol-4-yl)-7-oxo-6,7-dihydro-5H-pyrrolo[3,4-d]pyrimidin-2-yl)amino)bicyclo[1.1.1]pentane-1-carbonitrile] returned an EC50 of 468 nM.

As to `Cc1cc(/C=C/C#N)cc(C)c1Oc1nc(NC23CC(C#N)(C2)C3)nc2c1C1(C)OCCCN1C2=O` (centres unmarked) [Compound 314, (E)-3-((4-(4-(2-cyanovinyl)-2,6-dimethylphenoxy)-4b-methyl-10-oxo-4b,7,8,10-tetrahydro-6H-pyrimido[5′,4′:3,4]pyrrolo[2,1-b][1,3]oxazin-2-yl)amino)bicyclo[1.1.1]pentane-1-carbonitrile], the response was half-maximal at 25.3 nM (EC50).

As for `Cc1cc(/C=C/C#N)cc(C)c1Oc1nc(NC23CC(C#N)(C2)C3)nc2c1C(C)N(CC#N)C2=O` (centres unmarked) [Compound 315, (E)-3-((6-(cyanomethyl)-4-(4-(2-cyanovinyl)-2,6-dimethylphenoxy)-5-methyl-7-oxo-6,7-dihydro-5H-pyrrolo[3,4-d]pyrimidin-2-yl)amino)bicyclo[1.1.1]pentane-1-carbonitrile], the EC50 is 188 nM.

With `Cc1cc(/C=C/C#N)cc(C)c1Oc1nc(NC23CC(C#N)(C2)C3)nc2c1C(C)(O)N(CC#N)C2=O` (centres unmarked) [Compound 316, (E)-3-((6-(cyanomethyl)-4-(4-(2-cyanovinyl)-2,6-dimethylphenoxy)-5-hydroxy-5-methyl-7-oxo-6,7-dihydro-5H-pyrrolo[3,4-d]pyrimidin-2-yl)amino)bicyclo[1.1.1]pentane-1-carbonitrile], the EC50 was 77.5 nM. This EC50 is about 2.4-fold lower than that of the compound before.

As to `CCc1cc(/C=C/C#N)cc(Cl)c1Oc1nc(NC23CC(C#N)(C2)C3)nc2[nH]nc(C)c12` [Example 1, (E)-3-((4-(2-chloro-4-(2-cyanovinyl)-6-ethylphenoxy)-3-methyl-1H-pyrazolo[3,4-d]pyrimidin-6-yl)amino)bicyclo[1.1.1]pentane-1-carbonitrile], the EC50 is 46.7 nM.

`Cc1cc(/C=C/C#N)cc(C)c1Oc1nc(NC23CC(C#N)(C2)C3)nc2c1C1(C)OCC3(CCC3)CN1C2=O` (centres unmarked) [Example 198, (E)-3-((4′-(4-(2-cyanovinyl)-2,6-dimethylphenoxy)-4b′-methyl-10′-oxo-4b′,10′-dihydro-6′H,8′H-spiro[cyclobutane-1,7′-pyrimido[5′,4′:3,4]pyrrolo[2,1-b][1,3]oxazin]-2′-yl)amino)bicyclo[1.1.1]pentane-1-carbonitrile] registered an EC50 of 115 nM.

`Cc1cc(/C=C/C#N)cc(C)c1Oc1nc(NC23CC(C#N)(C2)C3)nc2c1C1(C)OCC3(COC3)CN1C2=O` (centres unmarked) [Example 199, (E)-3-((4′-(4-(2-cyanovinyl)-2,6-dimethylphenoxy)-4b′-methyl-10′-oxo-4b′,10′-dihydro-6′H,8′H-spiro[oxetane-3,7′-pyrimido[5′,4′:3,4]pyrrolo[2,1-b][1,3]oxazin]-2′-yl)amino)bicyclo[1.1.1]pentane-1-carbonitrile] registered an EC50 of 49 nM. Compared with the last compound, the EC50 is about 2.3-fold lower.

In the case of `Cc1cc(/C=C/C#N)cc(C)c1Oc1nc(NC23CC(C#N)(C2)C3)nc2c1C1(C)OCC3(CCOCC3)CN1C2=O` (centres unmarked) [Example 200, (E)-3-((4′-(4-(2-cyanovinyl)-2,6-dimethylphenoxy)-4b′-methyl-10′-oxo-2,3,4b′,5,6,10′-hexahydro-6′H,8′H-spiro[pyran-4,7′-pyrimido[5′,4′:3,4]pyrrolo[2,1-b][1,3]oxazin]-2′-yl)amino)bicyclo[1.1.1]pentane-1-carbonitrile], a half-maximal effect (EC50) was put at 175 nM.

For the compound `Cc1cc(/C=C/C#N)cc(C)c1Oc1nc(NC23CC(C#N)(C2)C3)nc2c1C1(C)OC[C@@H](F)CN1C2=O` (stereo partly drawn) [Example 201, 3-(((7S)-4-(4-((E)-2-cyanovinyl)-2,6-dimethylphenoxy)-7-fluoro-4b-methyl-10-oxo-4b,7,8,10-tetrahydro-6H-pyrimido[5′,4′:3,4]pyrrolo[2,1-b][1,3]oxazin-2-yl)amino)bicyclo[1.1.1]pentane-1-carbonitrile], the EC50 worked out at 88.6 nM. This EC50 lies about 2-fold lower than the previous one.

In turn, `Cc1cc(/C=C/C#N)cc(C)c1Oc1nc(NC23CC(C#N)(C2)C3)nc2c1C1(C)OC[C@H](F)CN1C2=O` (stereo partly drawn) [Example 202, 3-(((7R)-4-(4-((E)-2-cyanovinyl)-2,6-dimethylphenoxy)-7-fluoro-4b-methyl-10-oxo-4b,7,8,10-tetrahydro-6H-pyrimido[5′,4′:3,4]pyrrolo[2,1-b][1,3]oxazin-2-yl)amino)bicyclo[1.1.1]pentane-1-carbonitrile] gave an EC50 of 18.9 nM.

Regarding `COCCN1C(=O)c2nc(NC34CC(C#N)(C3)C4)nc(Oc3c(C)cc(/C=C/C#N)cc3C)c2C1C` (centres unmarked) [Example 203, (E)-3-((4-(4-(2-cyanovinyl)-2,6-dimethylphenoxy)-6-(2-methoxyethyl)-5-methyl-7-oxo-6,7-dihydro-5H-pyrrolo[3,4-d]pyrimidin-2-yl)amino)bicyclo[1.1.1]pentane-1-carbonitrile], the EC50 came to 27.5 nM. This EC50 and that of the compound before are within 1.5-fold of each other.

In turn, `CCN1C(=O)c2nc(NC34CC(C#N)(C3)C4)nc(Oc3c(C)cc(/C=C/C#N)cc3C)c2C1C` (centres unmarked) [Example 204, (E)-3-((4-(4-(2-cyanovinyl)-2,6-dimethylphenoxy)-6-ethyl-5-methyl-7-oxo-6,7-dihydro-5H-pyrrolo[3,4-d]pyrimidin-2-yl)amino)bicyclo[1.1.1]pentane-1-carbonitrile] showed an EC50 of 23.4 nM.

The compound `C=CCN1C(=O)c2nc(NC34CC(C#N)(C3)C4)nc(Oc3c(C)cc(/C=C/C#N)cc3C)c2C1C` (centres unmarked) [Example 205, (E)-3-((6-allyl-4-(4-(2-cyanovinyl)-2,6-dimethylphenoxy)-5-methyl-7-oxo-6,7-dihydro-5H-pyrrolo[3,4-d]pyrimidin-2-yl)amino)bicyclo[1.1.1]pentane-1-carbonitrile] gave an EC50 of 42.7 nM. This EC50 lies about 1.8-fold higher than the previous one.

`Cc1cc(/C=C/C#N)cc(C)c1Oc1nc(NC23CC(C#N)(C2)C3)nc2c1C(C)N(C(C)C)C2=O` (centres unmarked) [Example 206, (E)-3-((4-(4-(2-cyanovinyl)-2,6-dimethylphenoxy)-6-isopropyl-5-methyl-7-oxo-6,7-dihydro-5H-pyrrolo[3,4-d]pyrimidin-2-yl)amino)bicyclo[1.1.1]pentane-1-carbonitrile]: the EC50 was 280 nM.

`Cc1cc(/C=C/C#N)cc(C)c1Oc1nc(NC23CC(C#N)(C2)C3)nc2c1C(C)N(CCC(F)(F)F)C2=O` (centres unmarked) [Example 207, (E)-3-((4-(4-(2-cyanovinyl)-2,6-dimethylphenoxy)-5-methyl-7-oxo-6-(3,3,3-trifluoropropyl)-6,7-dihydro-5H-pyrrolo[3,4-d]pyrimidin-2-yl)amino)bicyclo[1.1.1]pentane-1-carbonitrile] yielded an EC50 of 70.3 nM.

As for `Cc1cc(/C=C/C#N)cc(C)c1Oc1nc(NC23CC(C#N)(C2)C3)nc2c1C(C)N(C1COC1)C2=O` (centres unmarked) [Example 208, (E)-3-((4-(4-(2-cyanovinyl)-2,6-dimethylphenoxy)-5-methyl-6-(oxetan-3-yl)-7-oxo-6,7-dihydro-5H-pyrrolo[3,4-d]pyrimidin-2-yl)amino)bicyclo[1.1.1]pentane-1-carbonitrile], the EC50 is 28.8 nM.

For the compound `Cc1cc(/C=C/C#N)cc(C)c1Oc1nc(NC23CC(C#N)(C2)C3)nc2c1C(C)N(CCc1cn(C)cn1)C2=O` (centres unmarked) [Example 209, (E)-3-((4-(4-(2-cyanovinyl)-2,6-dimethylphenoxy)-5-methyl-6-(2-(1-methyl-1H-imidazol-4-yl)ethyl)-7-oxo-6,7-dihydro-5H-pyrrolo[3,4-d]pyrimidin-2-yl)amino)bicyclo[1.1.1]pentane-1-carbonitrile], the EC50 amounted to 57.7 nM.

`Cc1cc(/C=C/C#N)cc(C)c1Oc1nc(NC23CC(C#N)(C2)C3)nc2c1C(C)N(CC1CC1)C2=O` (centres unmarked) [Example 210, (E)-3-((4-(4-(2-cyanovinyl)-2,6-dimethylphenoxy)-6-(cyclopropylmethyl)-5-methyl-7-oxo-6,7-dihydro-5H-pyrrolo[3,4-d]pyrimidin-2-yl)amino)bicyclo[1.1.1]pentane-1-carbonitrile] displayed an EC50 of 125 nM.

`Cc1cc(/C=C/C#N)cc(C)c1Oc1nc(NC23CC(C#N)(C2)C3)nc2c1C(C)N(CCc1cnn(C)c1)C2=O` (centres unmarked) [Example 211, (E)-3-((4-(4-(2-cyanovinyl)-2,6-dimethylphenoxy)-5-methyl-6-(2-(1-methyl-1H-pyrazol-4-yl)ethyl)-7-oxo-6,7-dihydro-5H-pyrrolo[3,4-d]pyrimidin-2-yl)amino)bicyclo[1.1.1]pentane-1-carbonitrile] gave an EC50 of 54.5 nM.

The values are drawn from patent US20250333424A1, “ANTIVIRAL COMPOUNDS” (Gilead Sciences, Inc., priority 2024, published 2025).
